Measured values taken from patent US20060252800A1, “Anti-leishmania agent” (priority 2003, published 2006).

Test system: Leishmania (L. major)
Experiment: Leishmania protozoa proliferation inhibition assay
Format: cell-based
Details: for OD level (number of viable Leishmania protozoa): 48 hours at 27° C., absorbance 450 nm minus 630 nm; for IC50: calculated from the graphs of FIGS. 1 to 4 (concentration vs number of viable leishmania protozoa), read-out: Concentration inhibiting 50% leishmania proliferation
Procedure: After dissolving each of the obtained compounds in dimethylsulfoxide (hereinafter referred to as DMSO), the resultant was diluted by 9 steps in Medium 199 medium (Invitrogen) to the indicated concentration, filtrated with a membrane filter, and each of the filtration was made as a sample solution. […] By keeping the solution at 27° C., incubation was performed under 5% CO2, for 48 hours. Then, TetraColor ONE (tradename: Seikagaku Corporation) reagent was added thereto and further incubated for 6 hours. Then, the absorbance at a wavelength of 450 nm was measured for the 96-well microtiter plate with a microplate reader, the wave length of 630 nm was made as reference wave length, and in order to exclude background effect, the absorbance at 630 nm was excluded from the one at 450 nm, and the OD level was calculated as a level to indicate the number of viable Leishmania protozoa. The assay was performed by three wells at a time for each concentration of each sample, and the mean level was made as OD level. […] Amphotericin B was used as positive control. […] Inhibiting effect against […] protozoa for each sample was similar or more compared with that of Amtephotericin B.

[1] = Table 3, sample concentration 0.001 mg/ml
[2] = Table 3, sample concentration 0.002165 mg/ml
[3] = Table 3, sample concentration 0.0072171 mg/ml
[4] = Table 3, sample concentration 0.02406 mg/ml
[5] = Table 3, sample concentration 0.08019 mg/ml
[6] = Table 3, sample concentration 0.2673 mg/ml
[7] = Table 3, sample concentration 0.891 mg/ml
[8] = Table 3, sample concentration 2.97 mg/ml
[9] = Table 3, sample concentration 9.9 mg/ml
[10] = Table 3, sample concentration 33 mg/ml
[11] = Table 1, sample concentration 0.001 mg/ml
[12] = Table 1, sample concentration 0.016384 mg/ml
[13] = Table 1, sample concentration 0.04096 mg/ml
[14] = Table 1, sample concentration 0.1024 mg/ml
[15] = Table 1, sample concentration 0.256 mg/ml
[16] = Table 1, sample concentration 0.64 mg/ml
[17] = Table 1, sample concentration 1.6 mg/ml
[18] = Table 1, sample concentration 4 mg/ml
[19] = Table 1, sample concentration 10 mg/ml
[20] = Table 1, sample concentration 25 mg/ml, mean of three wells

| SMILES | IC50 [µM] | OD level (number of viable Leishmania protozoa) [11] | OD level (number of viable Leishmania protozoa) [12] | OD level (number of viable Leishmania protozoa) [13] | OD level (number of viable Leishmania protozoa) [14] | OD level (number of viable Leishmania protozoa) [15] | OD level (number of viable Leishmania protozoa) [16] | OD level (number of viable Leishmania protozoa) [17] | OD level (number of viable Leishmania protozoa) [18] | OD level (number of viable Leishmania protozoa) [19] | OD level (number of viable Leishmania protozoa) [20] | also measured |
| --- | --- | --- | --- | --- | --- | --- | --- | --- | --- | --- | --- | --- |
| CCn1c(=Cc2sc3ccc4ccccc4c3[n+]2C)sc(=C2Sc3ccccc3N2C)c1=O.Cc1ccc(S(=O)(=O)[O-])cc1 [IV (g), 2-[{5-(3-methyl-2(3H)-benzothiazolylidene)-4-oxo-3-ethyl-2-thiazolidinylidene}methyl]-3-methylbenzo[e]benzothiazolium=p-toluenesulfonate] | 0.012 |  |  |  |  |  |  |  |  |  |  | OD level (number of viable Leishmania protozoa) (Table 2, sample concentration 0.0001 mg/ml): 0.352; OD level (number of viable Leishmania protozoa) (Table 2, sample concentration 0.0007 mg/ml): 0.368; OD level (number of viable Leishmania protozoa) (Table 2, sample concentration 0.002 mg/ml): 0.253; OD level (number of viable Leishmania protozoa) (Table 2, sample concentration 0.008 mg/ml): 0.121; OD level (number of viable Leishmania protozoa) (Table 2, sample concentration 0.025 mg/ml): 0.055; OD level (number of viable Leishmania protozoa) (Table 2, sample concentration 0.084 mg/ml): 0.032; OD level (number of viable Leishmania protozoa) (Table 2, sample concentration 0.279 mg/ml): 0.030; OD level (number of viable Leishmania protozoa) (Table 2, sample concentration 0.93 mg/ml): 0.031; OD level (number of viable Leishmania protozoa) (Table 2, sample concentration 3.1 mg/ml): 0.029; OD level (number of viable Leishmania protozoa) (Table 2, sample concentration 2E−04 mg/ml): 0.448 |
| CCn1c(=Cc2sc3ccccc3[n+]2C)sc(=C2C=Cc3ccccc3N2C)c1=O.Cc1ccc(S(=O)(=O)[O-])cc1 [IV (d)] |  |  |  |  |  |  |  |  |  |  |  | OD level (number of viable Leishmania protozoa) [1]: 0.346; OD level (number of viable Leishmania protozoa) [2]: 0.357; OD level (number of viable Leishmania protozoa) [3]: 0.339; OD level (number of viable Leishmania protozoa) [4]: 0.341; OD level (number of viable Leishmania protozoa) [5]: 0.359; OD level (number of viable Leishmania protozoa) [6]: 0.348; OD level (number of viable Leishmania protozoa) [7]: 0.365; OD level (number of viable Leishmania protozoa) [8]: 0.395; OD level (number of viable Leishmania protozoa) [9]: 0.344; OD level (number of viable Leishmania protozoa) [10]: 0.035 |
| CCn1c(=Cc2sc3ccccc3[n+]2CC)sc(=c2sc(=C3Sc4ccccc4N3C)c(=O)n2CC)c1=O.[Br-] [IV (e), 2-[[5-{5′-(3″-methyl-2″ (3″H)-benzothiazolylidene)-4′-oxo-3′-ethyl-2′-thiazolidinylidene)-4-oxo-3-ethyl-2-thiazolidinylidene]methyl]-3-ethylbenzothiazolium=bromide] | 0.061 | 0.463 | 0.445 | 0.220 | 0.159 | 0.056 | 0.035 | 0.030 | 0.030 | 0.032 | 0.033 |  |
| CN1/C(=C\c2cccc[n+]2C)Sc2ccccc21 [V (a), 2-[(3-methyl-2(3H)-benzothiazolylidene)methyl]-1-methylpyridinium=p-toluenesulfonate] | 0.49 | 0.464 | 0.615 | 1.237 | 0.596 | 0.139 | 0.046 | 0.032 | 0.029 | 0.031 | 0.032 |  |
| CCn1c(=Cc2cccc[n+]2CC)sc(=C2Sc3ccccc3N2C)c1=O.[Cl-] [IV (i), 2-[{5-(3-methyl-2(3H)-benzothiazolylidene)-4-oxo-3-ethyl-2-thiazolidinylidene}methyl]-1-ethylpyridinium=chloride] | 0.46 | 0.451 | 0.504 | 0.482 | 0.478 | 0.153 | 0.086 | 0.039 | 0.033 | 0.030 | 0.026 |  |
| CCn1c(=Cc2cc[n+](C)cc2)sc(=C2Sc3ccccc3N2C)c1=O.Cc1ccc(S(=O)(=O)[O-])cc1 [IV (j), 4-[(5-(3-methyl-2(3H)-benzothiazolylidene)-4-oxo-3-ethyl-2-thiazolidinylidene}methyl]-1-methylpyridinium=p-toluenesulfonate] | 10 | 0.446 | 0.462 | 0.468 | 0.518 | 0.661 | 0.793 | 0.551 | 0.275 | 0.188 | 0.057 |  |
| CN1C(=c2sc(=Cc3sc4ccccc4[n+]3C)n(CC3CCCO3)c2=O)Sc2ccccc21.Cc1ccc(S(=O)(=O)[O-])cc1 (stereo not shown) [IV (k), 2-[{5-(3-methyl-2(3H)-benzothiazolylidene)-4-oxo-3-(2-tetrahydrofuranyl)methyl-2-thiazolidinylidene}methyl]-1-methylbenzothiazolium=p-toluenesulfonate] | 2.6 |  |  |  |  |  |  |  |  |  |  | OD level (number of viable Leishmania protozoa) [1]: 0.338; OD level (number of viable Leishmania protozoa) [2]: 0.356; OD level (number of viable Leishmania protozoa) [3]: 0.344; OD level (number of viable Leishmania protozoa) [4]: 0.341; OD level (number of viable Leishmania protozoa) [5]: 0.351; OD level (number of viable Leishmania protozoa) [6]: 0.348; OD level (number of viable Leishmania protozoa) [7]: 0.371; OD level (number of viable Leishmania protozoa) [8]: 0.434; OD level (number of viable Leishmania protozoa) [9]: 0.154; OD level (number of viable Leishmania protozoa) [10]: 0.029 |
